The source of these data is ChEMBL document CHEMBL4431311, “Endothelin-Receptor Antagonists beyond Pulmonary Arterial Hypertension: Cancer and Fibrosis” (J Med Chem, 2016).

By IC50 is commonly meant the concentration needed to halve the response being measured. Low values mean greater potency in that assay, high ones weaker potency in that assay.

The structures appear in SMILES notation.

The target of assay [1] is T1, Endothelin-1 receptor (Homo sapiens, UniProt P25101).
T1 sequence (P25101 whole entry): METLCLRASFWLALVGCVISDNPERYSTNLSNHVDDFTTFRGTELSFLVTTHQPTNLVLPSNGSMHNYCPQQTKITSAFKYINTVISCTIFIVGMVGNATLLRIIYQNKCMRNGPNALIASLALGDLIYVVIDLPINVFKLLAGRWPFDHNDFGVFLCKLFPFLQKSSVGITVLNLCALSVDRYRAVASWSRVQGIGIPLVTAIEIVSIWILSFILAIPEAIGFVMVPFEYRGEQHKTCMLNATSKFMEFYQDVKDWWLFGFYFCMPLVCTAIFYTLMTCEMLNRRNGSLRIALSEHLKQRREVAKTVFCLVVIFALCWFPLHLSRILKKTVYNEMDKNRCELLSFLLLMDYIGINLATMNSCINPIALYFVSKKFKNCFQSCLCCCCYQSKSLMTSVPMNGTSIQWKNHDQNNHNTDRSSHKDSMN
Nature of the assay: Displacement of [125I]ET-1 from human ET-A receptor expressed in CHO cell membrane incubated for 2 hrs. Type of assay: cell membranes. In general terms: In a radioligand displacement assay an active substance lowers the binding of a labelled ligand.

Assay [2] concerns the target T2, Endothelin receptor type B (Homo sapiens, UniProt P24530).
T2 sequence (P24530 whole entry): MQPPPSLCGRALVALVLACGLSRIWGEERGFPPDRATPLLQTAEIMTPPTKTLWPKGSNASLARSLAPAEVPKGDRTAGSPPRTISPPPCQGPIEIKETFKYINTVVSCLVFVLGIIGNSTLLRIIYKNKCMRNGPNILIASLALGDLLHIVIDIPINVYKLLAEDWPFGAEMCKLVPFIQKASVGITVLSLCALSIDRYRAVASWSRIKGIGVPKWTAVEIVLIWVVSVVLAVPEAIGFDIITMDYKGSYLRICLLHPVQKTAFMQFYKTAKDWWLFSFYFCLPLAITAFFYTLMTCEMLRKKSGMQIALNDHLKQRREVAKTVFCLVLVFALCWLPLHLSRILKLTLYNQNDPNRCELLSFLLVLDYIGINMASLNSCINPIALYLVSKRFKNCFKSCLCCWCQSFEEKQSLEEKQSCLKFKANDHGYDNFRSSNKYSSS
Nature of the assay: Displacement of [125I]ET-1 from ET-B receptor in human Girardi heart cells incubated for 4 hrs by gamma counting method. Type of assay: cell-based.

In assay [3] the target is T1, Endothelin-1 receptor. Nature of the assay: Displacement of [125I]ET-1 from ET-A receptor in human SK-N-MC cells incubated for 4 hrs by gamma counting method. It counts as cell-based.
The target in assay [4] is T3, Endothelin-1 receptor (Homo sapiens) (UniProt P25101).
T3 sequence (whole entry): T1 sequence (P25101 whole entry)
Nature of the assay: Binding affinity to ET-A receptor (unknown origin) assessed as dissociation half life.

Consider `Cc1cc(C)cc(C(=O)N(C)[C@H](Cc2ccc(-c3ccccc3)cc2)C(=O)N[C@@H](Cc2c[nH]c3ccccc23)C(=O)O)c1`, for which the IC50 in assay [1] came out at 94 nM.
As to `CCCC[C@H](NC(=O)[C@@H](Cc1cn(C(=O)OC)c2ccccc12)NC(=O)[C@@H](CC(C)(C)C)NC(=O)N1[C@H](C)CCC[C@@H]1C)C(=O)O`, the IC50 came to 1.2 nM in assay [2] and 1300 nM in assay [3].
Take `COc1ccccc1Oc1c(NS(=O)(=O)c2ccc(C(C)(C)C)cc2)nc(-c2ncccn2)nc1OCCO`: the T1/2 in assay [4] came to 1 min.
